Common to all, as to assay: DTP human tumour cell line panel, 48 h
Assay [1] deals with K-562 leukemia.
The test system of assay [2] is MCF7 breast.
Assay [3] has as its system SF-295 CNS.
Assay [4] relates to NCI-H522 lung.
In assay [5] the test system is NCI-H23 lung.
Assay [6] concerns DU-145 prostate.
Assay [7] deals with SW-620 colon.
Assay [8] has as its system HS 578T breast.
For assay [9], the system named is HT29 colon.
Assay [10] deals with CCRF-CEM leukemia.

Several values for one entry are separate records, joined by “and”; a condition that tells them apart may be missing. Equal values may be shown once.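 Cells were grown in 96-well plates and exposed to each compound for 48 hours at five concentrations; endpoints were interpolated linearly between bracketing concentrations, or set to the highest concentration if not reached. The concentration for 50% growth inhibition is given as GI50. At the TGI there is no net growth.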

In the case of `C=C(CN1CCN(c2ccccn2)CC1)c1ccc(C(=O)Nc2ccccc2N)cc1`, the GI50 in [1] is 0.956 µM; in assay [2], 3.15 µM; in [3], 1.39 µM; in assay [4], 1.56 µM; in [5], 0.939 µM; in assay [6], 2.52 µM. Further, the GI50 is 1.71 µM in assay [7] and 1.11 µM in [8]. Further, the TGI in assay [1] was > 50 µM; in assay [2] it was > 50 µM; in assay [3] it was 6.52 µM; in assay [4] it was 9.36 µM; in assay [5], 2.44 µM; in [6] it was 18.5 µM. Besides, the values for the TGI in [7] and in assay [8] were > 50 µM and 6.28 µM, respectively.

As for `CN1C2C=CC(=O)C1C(C#N)C2` (stereo not given), the TGI is > 100 µM in assay [1]; > 100 µM in assay [2]; > 100 µM in [3]; > 100 µM in assay [9]; 87.9 µM and > 100 µM in assay [5]; > 100 µM in assay [6]. The TGI was 82.7 µM and > 100 µM in assay [10]; > 100 µM in assay [7]; > 100 µM in [8]. Further, the GI50 in [9] is 31.8 µM and 90.5 µM.

Regarding `O=C(CC1(O)CCCCC1)OC1CCCC1`, the TGI in [2], in assay [3], in [9], in assay [4], in assay [5] and in assay [6] was > 100 µM in each case. Also, the TGI in [8] is > 100 µM.

`CCNc1ccc2c(c1)C(=O)N(OS(C)(=O)=O)C2=O`: the total growth inhibition concentration (TGI) in assay [2] is > 100 µM; in assay [3] it was > 100 µM; in [9], > 100 µM; in assay [4], 34.8 µM; in assay [5], > 100 µM; in assay [6], > 100 µM. The TGI in assay [10], in [7] and in assay [8] was > 100 µM in each case.

In the case of `NC(=S)c1cccc(C2Nc3ccccc3O2)c1` (stereo not given), the concentration for total growth inhibition (TGI) in assay [1], in assay [2], in [3], in assay [9], in assay [4] and in assay [5] was > 100 µM throughout. The TGI in [6], in assay [7] and in assay [8] was > 100 µM throughout.

For `COc1ccc(C(=O)Cn2c(C(=O)c3ccc(Cl)cc3)nc(-c3ccccc3)c2-c2ccccc2)cc1`, the GI50 is > 100 µM in [1]; > 100 µM in assay [2]; 91 µM in [3]; > 100 µM in assay [9]; > 100 µM in [4]; > 100 µM in assay [5]. Also, the GI50 is > 100 µM in [6], > 100 µM in [7] and 44.1 µM in assay [8]. In addition, the TGI in assay [1], in assay [2], in [3], in assay [9], in [4] and in assay [5] was > 100 µM each time. In addition, the TGI in assay [6], in assay [7] and in [8] was > 100 µM each time.

Turning to `N#C/C(=C/C=C/c1cccc(Cl)c1)S(=O)c1ccccc1` (stereo not given), the GI50 is 0.301 µM in assay [1]; 1.3 µM in assay [3]; 0.251 µM in assay [4]; 0.42 µM in assay [5]; 0.393 µM in assay [6]; 0.296 µM in assay [10]. Further, the GI50 in [8] was 1.68 µM. The TGI is 13.2 µM in [1]; 2.88 µM in [3]; 0.804 µM in [4]; 1.74 µM in assay [5]; 1.56 µM in assay [6]; 1.21 µM in [10]. The compound also returned a TGI in [8] of 33.4 µM.

For the compound `COc1cc(C=NCC(=O)CSC(c2ccccc2)c2ccccc2)ccc1O`, the GI50 in assay [1] was 4.73 µM; in [2] it was 21.2 µM; in assay [3] it was 14.6 µM; in assay [9], 15.3 µM; in assay [5], 8 µM; in [6], 12.2 µM. In addition, the GI50 in assay [10] is 8.42 µM; in assay [7], 15.5 µM; in assay [8], 0.0464 µM. In addition, the TGI in assay [1] was 23.3 µM; in assay [2], > 100 µM; in [3], 46.9 µM; in [9] it was 28.6 µM; in assay [5] it was 20.5 µM; in assay [6] it was 37.8 µM. The results for the TGI in assay [10], in assay [7] and in assay [8] were 50.9 µM, 31.4 µM and 5.52 µM, respectively.

On to `COc1ccc(-c2cn3ccnc3c(-c3ccc(Cl)cc3)n2)cc1`, for which the GI50 in assay [1] was 4.01 µM; in assay [2], 5.56 µM; in [3], 23.1 µM; in assay [9], 6.66 µM; in [4] it was > 100 µM; in assay [5], 4.71 µM. Besides, the GI50 is 11.7 µM in assay [6], 4.51 µM in [7] and 3.83 µM in [8]. Besides, the concentration for total growth inhibition (TGI) in assay [1] is > 100 µM; in assay [2], > 100 µM; in [3] it was 85.3 µM; in assay [9], > 100 µM; in assay [4], > 100 µM; in assay [5], 40.3 µM. Also, the figures for the total growth inhibition concentration (TGI) in assay [6], in assay [7] and in assay [8] were > 100 µM, > 100 µM and 48.2 µM, respectively.

As for `COc1cc(N)c(Cl)cc1C(=O)N[C@@H]1CCN(CCCOc2ccc(F)cc2)C[C@@H]1OC`, the GI50 in [1] is 26.3 µM; in assay [2], 57 µM; in assay [3], 50.3 µM; in assay [9] it was 20.5 µM; in [4] it was 61.8 µM; in assay [5] it was > 100 µM. The GI50 in assay [6], in assay [7] and in [8] was > 100 µM throughout. Moreover, the TGI in assay [1] was 74.1 µM; in [2] it was > 100 µM; in assay [3], > 100 µM; in [9], > 100 µM; in assay [4], > 100 µM; in [5], > 100 µM. Also, the TGI in assay [6], in [7] and in [8] was > 100 µM each time.

For the compound `BrCc1ccc2ccc3ccc(CBr)nc3c2n1`, the TGI is > 28.4 µM in [1]; 4.87 µM in [2]; 28.6 µM in assay [3]; 4.61 µM in [9]; 19.4 µM in assay [5]; 21.7 µM in [6]. Also, the TGI in [10] was determined as 3.75 µM; in [7], 5.86 µM; in assay [8], 71.3 µM.

Turning to `COc1cc(C2CC(c3ccc(Cl)cc3)=NN2C(C)=O)ccc1Oc1ccnc2cc(Cl)ccc12` (stereo not given), the GI50 was > 100 µM in [1]; > 100 µM in [2]; 4.22 µM in [3]; > 100 µM in assay [6]; > 100 µM in assay [10]; > 100 µM in [7]. Besides, in assay [8], the GI50 is 2.94 µM. Further, the TGI in assay [1], in [2], in [3], in assay [6], in [10] and in [7] was > 100 µM each time. In [8], the total growth inhibition concentration (TGI) was > 100 µM.

For `CC(=O)/C(=N\N=C(N)N)c1ccccc1`, the TGI in assay [1], in assay [2], in [3], in assay [9], in assay [4] and in assay [5] was > 100 µM each time. The total growth inhibition concentration (TGI) in assay [6], in assay [7] and in [8] was > 100 µM in each case.

Consider `Cc1cc(C)nc(NC(=O)COc2ccc(Cl)cc2)c1`, for which the TGI in [1], in assay [2], in assay [3], in assay [9], in assay [4] and in assay [5] was > 100 µM each time. For the same compound, the TGI in assay [6], in [7] and in assay [8] was > 100 µM each time.

In the case of `CCOC(=O)c1sc(NC(=O)COc2ccc(/C=C3\CCc4cc(OC)ccc4C3=O)cc2)nc1C`, the GI50 is 3.71 µM in assay [1]; 9.43 µM in assay [2]; 11.1 µM in assay [3]; 13.7 µM in assay [9]; 4.56 µM in assay [4]; 13.7 µM in assay [5]. Besides, the GI50 in assay [6] is 12.8 µM; in [7] it was 11.4 µM; in [8], 13.4 µM. Moreover, the total growth inhibition concentration (TGI) in assay [1] is > 40.3 µM; in assay [2] it was 23 µM; in assay [3], 23.9 µM; in assay [9] it was 28.6 µM; in assay [4], 12.1 µM; in assay [5] it was 32.4 µM. Besides, the figures for the concentration for total growth inhibition (TGI) in [6], in [7] and in assay [8] were 26.4 µM, 23.5 µM and 42.4 µM, respectively.

In the case of `CCOC1=C/C(=N\Nc2ccc([N+](=O)[O-])cc2)CCC1`, the TGI in assay [1] was > 100 µM; in assay [2], > 100 µM; in assay [3], > 100 µM; in assay [9], 67.9 µM; in assay [4] it was 23.4 µM; in assay [5], 94.1 µM. In addition, the TGI in [6], in assay [7] and in assay [8] was > 100 µM each time.

What is called GI50 is the concentration giving 50% growth inhibition. In general, TGI refers to the concentration at which net growth stops.

The values above are taken from PubChem BioAssay (NCI).
